Measured values from the NIST ThermoML archive (doi:10.1021/je060052p).
± gives the expanded uncertainty stated by the source.

Assays:
[1] = refractive index (Na D-line) (dimensionless); xn = mol fraction of the nth substance listed; details: 298.15 K, 101 kPa, Liquid
[2] = xn = mol fraction of the nth substance listed; details: 298.15 K, 101 kPa, Liquid
[3] = Liquid; for mass density / speed of sound: 298.15 K, 101.33 kPa; for vapor or sublimation pressure: Ebulliometric method (Recirculating still)
[4] = refractive index (Na D-line) (dimensionless); details: 298.15 K; 101.33 kPa; Liquid

CCOC(=O)C(C)O (stereo not drawn) [DL-ethyl lactate] + CCOC(C)=O
Details | mass density, [2] [kg/m3] | refractive index, [1] | speed of sound, [2] [m/s]
x2 = 0.049 | 1022.5 ± 0.34 | 1.4088 ± 0.0012 | 1267 ± 3
x2 = 0.1 | 1016.77 ± 0.34 | 1.40722 ± 0.0012 | 1263 ± 3
x2 = 0.15 | 1010.85 ± 0.34 | 1.40535 ± 0.0012 | 1256 ± 3
x2 = 0.2 | 1004.94 ± 0.34 | 1.40357 ± 0.0012 | 1249 ± 3
x2 = 0.251 | 998.8 ± 0.34 | 1.40168 ± 0.0012 | 1243 ± 3
x2 = 0.3 | 992.68 ± 0.35 | 1.40005 ± 0.0012 | 1236 ± 3
x2 = 0.35 | 986.4 ± 0.36 | 1.39819 ± 0.0012 | 1229 ± 3
x2 = 0.4 | 979.87 ± 0.36 | 1.39623 ± 0.0012 | 1222 ± 3
x2 = 0.45 | 973.59 ± 0.36 | 1.39451 ± 0.0012 | 1215 ± 3
x2 = 0.5 | 966.98 ± 0.37 | 1.39263 ± 0.0012 | 1208 ± 3
x2 = 0.55 | 960.41 ± 0.38 | 1.3906 ± 0.0012 | 1201 ± 3
x2 = 0.6 | 953.46 ± 0.39 | 1.38855 ± 0.0012 | 1194 ± 3
x2 = 0.65 | 946.64 ± 0.4 | 1.38645 ± 0.0013 | 1188 ± 3
x2 = 0.7 | 939.6 ± 0.41 | 1.3842 ± 0.0013 | 1180 ± 3
x2 = 0.756 | 931.41 ± 0.42 | 1.38126 ± 0.0013 | 1173 ± 3
x2 = 0.8 | 924.84 ± 0.42 | 1.37923 ± 0.0013 | 1167 ± 3
x2 = 0.849 | 917.72 ± 0.43 | 1.37694 ± 0.0013 | 1160 ± 3
x2 = 0.9 | 910.03 ± 0.44 | 1.3747 ± 0.0013 | 1153 ± 3
x2 = 0.95 | 902.37 ± 0.45 | 1.3722 ± 0.0013 | 1145 ± 3

CCOC(=O)C(C)O (stereo not drawn) [DL-ethyl lactate] + COC(C)=O
Details | mass density, [2] [kg/m3] | refractive index, [1] | speed of sound, [2] [m/s]
x2 = 0.058 | 1024.62 ± 0.28 | 1.40872 ± 0.0012 | 1272 ± 3
x2 = 0.1 | 1021.03 ± 0.27 | 1.40699 ± 0.0012 | 1266 ± 3
x2 = 0.15 | 1017.3 ± 0.26 | 1.40595 ± 0.0012 | 1261 ± 3
x2 = 0.2 | 1013.63 ± 0.26 | 1.40379 ± 0.0012 | 1255 ± 3
x2 = 0.25 | 1009.78 ± 0.27 | 1.4023 ± 0.0012 | 1250 ± 3
x2 = 0.3 | 1005.46 ± 0.28 | 1.39968 ± 0.0013 | 1244 ± 3
x2 = 0.35 | 1001.13 ± 0.28 | 1.39787 ± 0.0012 | 1238 ± 3
x2 = 0.4 | 996.59 ± 0.28 | 1.39628 ± 0.0012 | 1232 ± 3
x2 = 0.45 | 992.2 ± 0.28 | 1.39379 ± 0.0013 | 1226 ± 3
x2 = 0.5 | 987.41 ± 0.29 | 1.39125 ± 0.0013 | 1220 ± 3
x2 = 0.55 | 982.34 ± 0.29 | 1.3879 ± 0.0013 | 1213 ± 3
x2 = 0.6 | 977.25 ± 0.3 | 1.38498 ± 0.0013 | 1207 ± 3
x2 = 0.65 | 972.03 ± 0.31 | 1.38197 ± 0.0013 | 1200 ± 3
x2 = 0.7 | 966.3 ± 0.32 | 1.37916 ± 0.0013 | 1193 ± 3
x2 = 0.75 | 960.47 ± 0.32 | 1.37601 ± 0.0013 | 1186 ± 3
x2 = 0.8 | 954.34 ± 0.33 | 1.37278 ± 0.0013 | 1180 ± 3
x2 = 0.85 | 947.87 ± 0.34 | 1.3696 ± 0.0013 | 1172 ± 3
x2 = 0.9 | 941.28 ± 0.35 | 1.36642 ± 0.0013 | 1164 ± 3
x2 = 0.95 | 934.27 ± 0.36 | 1.36248 ± 0.0013 | 1157 ± 3

CCOC(C)=O [ethyl acetate]
Details | mass density [kg/m3] | refractive index | speed of sound [m/s]
[3] | 894.29 ± 0.34 | – | 1138 ± 3
[4] | – | 1.36978 ± 0.0012 | –

Details | vapor or sublimation pressure [kPa]
[3], 350.25 K | 101.3 ± 1

COC(C)=O [methyl ethanoate]
Details | mass density [kg/m3] | refractive index | speed of sound [m/s]
[3] | 926.96 ± 0.3 | – | 1148 ± 3
[4] | – | 1.35865 ± 0.0012 | –

Details | vapor or sublimation pressure [kPa]
[3], 330.03 K | 101.3 ± 1

CCOC(=O)C(C)O (racemic) [DL-ethyl lactate]
Details | mass density [kg/m3] | refractive index | speed of sound [m/s]
[3] | 1028.02 ± 0.27 | – | 1277 ± 3
[4] | – | 1.4105 ± 0.0012 | –

Details | vapor or sublimation pressure [kPa]
[3], 424.98 K | 101.3 ± 1
